Molecular target: ROCK2 (Homo sapiens (Human), UniProt O75116)
Assay: ROCK assay (peptide substrate phosphorylation, LABCHIP 3000 Reader)
Format: biochemical
Settings: 5 μM ATP, 1.5 μM peptide substrate
Protocol: Compounds were dissolved in DMSO so that the final concentration of DMSO was <2%, and the reaction was initiated with Rho kinase variants. After incubation, the reaction was terminated by the addition of EDTA and the phosphorylated and non-phosphorylated peptides separated using a LABCHIP® 3000 Reader (Caliper Life Sciences). […] Compounds were tested in dose-response format, and the inhibition of kinase activity was calculated at each concentration of compound.

Chain of ROCK2 (O75116 whole entry, species assumed): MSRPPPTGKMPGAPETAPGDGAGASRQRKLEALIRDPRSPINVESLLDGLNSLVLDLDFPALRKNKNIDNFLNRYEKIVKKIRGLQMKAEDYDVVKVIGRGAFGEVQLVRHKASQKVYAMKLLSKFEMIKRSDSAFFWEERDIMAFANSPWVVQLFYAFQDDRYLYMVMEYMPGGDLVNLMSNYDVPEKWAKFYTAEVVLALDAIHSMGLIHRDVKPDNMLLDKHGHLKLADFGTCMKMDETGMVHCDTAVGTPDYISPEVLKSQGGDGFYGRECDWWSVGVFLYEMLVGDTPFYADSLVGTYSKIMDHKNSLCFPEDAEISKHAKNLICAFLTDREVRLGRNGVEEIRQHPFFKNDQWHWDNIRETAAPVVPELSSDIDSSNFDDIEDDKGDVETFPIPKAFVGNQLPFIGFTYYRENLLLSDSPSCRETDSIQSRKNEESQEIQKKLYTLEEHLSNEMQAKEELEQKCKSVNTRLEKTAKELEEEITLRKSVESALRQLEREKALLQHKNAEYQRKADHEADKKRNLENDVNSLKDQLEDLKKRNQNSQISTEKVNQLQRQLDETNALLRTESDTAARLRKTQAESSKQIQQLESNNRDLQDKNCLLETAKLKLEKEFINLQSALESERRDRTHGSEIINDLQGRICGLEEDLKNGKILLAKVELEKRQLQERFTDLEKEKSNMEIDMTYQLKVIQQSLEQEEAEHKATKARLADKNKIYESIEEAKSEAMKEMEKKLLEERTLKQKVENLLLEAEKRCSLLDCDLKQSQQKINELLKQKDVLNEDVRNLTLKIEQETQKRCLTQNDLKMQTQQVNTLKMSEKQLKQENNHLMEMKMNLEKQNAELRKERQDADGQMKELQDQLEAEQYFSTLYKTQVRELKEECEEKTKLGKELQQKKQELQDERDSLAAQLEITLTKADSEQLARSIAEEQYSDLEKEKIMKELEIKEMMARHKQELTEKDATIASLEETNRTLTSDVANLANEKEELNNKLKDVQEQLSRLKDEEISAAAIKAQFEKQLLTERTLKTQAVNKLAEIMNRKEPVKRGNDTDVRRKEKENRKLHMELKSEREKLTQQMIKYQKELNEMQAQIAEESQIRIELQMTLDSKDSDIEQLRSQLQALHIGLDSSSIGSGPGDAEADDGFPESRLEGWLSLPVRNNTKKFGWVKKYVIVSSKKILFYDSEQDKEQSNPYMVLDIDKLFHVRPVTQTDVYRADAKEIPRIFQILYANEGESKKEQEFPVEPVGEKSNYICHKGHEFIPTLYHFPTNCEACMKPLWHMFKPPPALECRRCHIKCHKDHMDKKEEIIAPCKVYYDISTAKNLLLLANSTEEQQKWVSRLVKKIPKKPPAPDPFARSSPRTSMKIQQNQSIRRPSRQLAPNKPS

IC50 | SMILES
73.3 nM | O=C(c1ccc(-c2cn[nH]c2)c(OC(F)F)c1)N1C[C@H](O)C[C@@H]1c1ccccc1F [Example 94, (3R,5R)-1-[3-(Difluoromethoxy)-4-(1H-pyrazol-4-yl)benzoyl]-5-(2-fluorophenyl)pyrrolidin-3-ol]
1570 nM | COc1cc(C(=O)N2CCCC2c2cccc(-c3c(C)noc3C)c2)ccc1-c1cn[nH]c1 (stereo not shown) [Example 75, 4-(3-{1-[3-methoxy-4-(1H-pyrazol-4-yl)benzoyl]pyrrolidin-2-yl}phenyl)-3,5-dimethyl-1,2-oxazole]
11.6 nM | COc1cc(C(=O)N2CCC[C@@H]2c2cccc(S(C)(=O)=O)c2)ccc1-c1cn[nH]c1 [Example 31, 4-{4-[(2R)-2-(3-Methanesulfonylphenyl)pyrrolidine-1-carbonyl]-2-methoxyphenyl}-1H-pyrazole]
1.8 nM | COc1cc(C(=O)N2CC(O)C[C@@H]2c2cccc(C(=O)NCc3cc(C)on3)c2)ccc1-c1cn[nH]c1 (stereo partly drawn) [Example 59, 3-[(2R)-4-hydroxy-1-[3-methoxy-4-(1H-pyrazol-4-yl)benzoyl]pyrrolidin-2-yl]-N-[(5-methyl-1,2-oxazol-3-yl)methyl] benzamide]
75.3 nM | COc1cc(C(=O)N2CCCC2c2ccc3c(c2)OCO3)ccc1-c1cn[nH]c1 (stereo not shown) [Example 30, 4-{4-[2-(2H-1,3-benzodioxol-5-yl)pyrrolidine-1-carbonyl]-2-methoxyphenyl}-1H-pyrazole]
331 nM | COc1ccc(C2CCCN2C(=O)c2ccc(-c3cn[nH]c3)c(OC)c2)cc1 (stereo not shown) [Example 25, 4-{2-methoxy-4-[2-(4-methoxyphenyl)pyrrolidine-1-carbonyl]phenyl}-1H-pyrazole]
614 nM | CS(=O)(=O)c1cccc([C@H]2CC(O)CN2C(=O)c2ccc(-c3ccnc4[nH]ccc34)cc2)c1 (stereo partly drawn) [Example 99, (5R)-5-(3-methanesulfonyl-phenyl)-1-(4-{1H-pyrrolo [2,3-b]pyridin-4-yl}benzoyl) pyrrolidin-3-ol]
5.1 nM | COCCNC(=O)c1cccc([C@H]2CC(O)CN2C(=O)c2ccc(-c3cn[nH]c3)c(OC)c2)c1 (stereo partly drawn) [Example 50, 3-[(2R)-4-hydroxy-1-[3-methoxy-4-(1H-pyrazol-4-yl)benzoyl]pyrrolidin-2-yl]-N-(2-methoxyethyl) benzamide]
6.68 nM | COc1cc(C(=O)N2CC(O)C[C@@H]2c2cccc(C(=O)NC(C)C)c2)ccc1-c1cn[nH]c1 (stereo partly drawn) [Example 52, 3-[(2R)-4-hydroxy-1-[3-methoxy-4-(1H-pyrazol-4-yl)benzoyl]pyrrolidin-2-yl]-N-(propan-2-yl)benzamide]
153 nM | COc1cccc(C2CCCN2C(=O)c2ccc(-c3ccnc(F)c3)c(OC)c2)c1 (stereo not shown) [Example 83, 2-fluoro-4-{2-methoxy-4-[2-(3-methoxyphenyl)pyrrolidine-1-carbonyl]phenyl}pyridine]
228 nM | COc1cccc(C2CCCN2C(=O)c2ccc(-c3cn[nH]c3)c(C(C)O)c2)c1 (stereo not shown) [Example 100, 1-{5-[2-(3-Methoxyphenyl)pyrrolidine-1-carbonyl]-2-(1H-pyrazol-4-yl)phenyl}ethan-1-ol]
86 nM | COc1cc(C(=O)N2CC(O)C[C@@H]2c2cccc(S(C)(=O)=O)c2)ccc1-c1cn[nH]c1 (stereo partly drawn) [Example 90, (5R)-5-(3-Methanesulfonylphenyl)-1-[3-methoxy-4-(1H-pyrazol-4-yl)benzoyl]pyrrolidin-3-ol]
320 nM | COc1cc(C(=O)N2CCCC2c2cccc(-c3ccoc3)c2)ccc1-c1cn[nH]c1 (stereo not shown) [Example 76, 4-(4-{2-[3-(furan-3-yl)phenyl]pyrrolidine-1-carbonyl}-2-methoxyphenyl)-1H-pyrazole]
15.2 nM | CCNS(=O)(=O)c1cccc([C@H]2CCCN2C(=O)c2ccc(-c3cn[nH]c3)c(OC)c2)c1 [Example 112, N-Ethyl-3-[(2R)-1-[3-methoxy-4-(1H-pyrazol-4-yl)benzoyl]pyrrolidin-2-yl]benzene-1-sulfonamide]
43.4 nM | CCN1CCC[C@H]1CNC(=O)c1cccc([C@H]2CC(O)CN2C(=O)c2ccc(-c3cn[nH]c3)c(OC)c2)c1 (stereo partly drawn) [Example 49, N-{[(2S)-1-ethylpyrrolidin-2-yl]methyl}-3-[(2R)-4-hydroxy-1-[3-methoxy-4-(1H-pyrazol-4-yl)benzoyl]pyrrolidin-2-yl]benzamide]
901 nM | COc1cc(C(=O)N2CCCC2c2cccc(-c3cnn(CC(C)(C)O)c3)c2)ccc1-c1cn[nH]c1 (stereo not shown) [Example 74, 1-[4-(3-{1-[3-methoxy-4-(1H-pyrazol-4-yl)benzoyl]pyrrolidin-2-yl}phenyl)-1H-pyrazol-1-yl]-2-methylpropan-2-ol]
2.5 nM | COc1cc(C(=O)N2CC(O)C[C@@H]2c2cccc(C(=O)NCc3ncco3)c2)ccc1-c1cn[nH]c1 (stereo partly drawn) [Example 55, 3-[(2R)-4-hydroxy-1-[3-methoxy-4-(1H-pyrazol-4-yl)benzoyl]pyrrolidin-2-yl]-N-(1,3-oxazol-2-ylmethyl)benzamide]
800 nM | COc1cc(C(=O)N2CCc3ccccc32)ccc1-c1cn[nH]c1 [Example 13, 1-[3-methoxy-4-(1H-pyrazol-4-yl)benzoyl]-2,3-dihydro-1H-indole]
1280 nM | COc1cc(C(=O)N2CCCC2c2cccc(S(N)(=O)=O)c2)ccc1-c1cn[nH]c1 (stereo not shown) [Example 17, 3-{1-[3-methoxy-4-(1H-pyrazol-4-yl)benzoyl]pyrrolidin-2-yl}benzene-1-sulfonamide]

IC50 | SMILES
60.2 nM | COc1cc(C(=O)N2CCNCC2c2ccccc2)ccc1-c1cn[nH]c1 (stereo not shown) [Example 68, 1-[3-Methoxy-4-(1H-pyrazol-4-yl)benzoyl]-2-phenylpiperazine]
3.59 nM | COc1cc(C(=O)N[C@@H]2CNC[C@H]2c2ccccc2)ccc1-c1cn[nH]c1 [Example 69, 3-Methoxy-N-[(3S,4R)-4-phenylpyrrolidin-3-yl]-4-(1H-pyrazol-4-yl)benzamide]
4.7 nM | COc1cc(C(=O)N2CC(F)C[C@@H]2c2cccc(C(=O)NC3CC3)c2)ccc1-c1cn[nH]c1 (stereo partly drawn) [Example 78, N-Cyclopropyl-3-[(2R)-4-fluoro-1-[3-methoxy-4-(1H-pyrazol-4-yl)benzoyl]pyrrolidin-2-yl]benzamide]
4.52 nM | COc1cc(C(=O)N2CCC[C@@H]2c2cccc(C(=O)NCC(C)(C)O)c2)ccc1-c1cn[nH]c1 [Example 39, N-(2-hydroxy-2-methylpropyl)-3-[(2R)-1-[3-methoxy-4-(1H-pyrazol-4-yl)benzoyl]pyrrolidin-2-yl]benzamide]
31.8 nM | COc1cccc(C2CCCN2C(=O)c2ccc(-c3cn[nH]c3)c(OC)c2)c1 (stereo not shown) [Example 4, 4-{2-methoxy-4-[2-(3-methoxyphenyl)pyrrolidine-1-carbonyl]phenyl}-1H-pyrazole]
278 nM | COc1cc(C(=O)N2CCCC2c2cccc(NC3CCN(C)CC3)c2)ccc1-c1cn[nH]c1 (stereo not shown) [Example 105, N-(3-{1-[3-Methoxy-4-(1H-pyrazol-4-yl)benzoyl]pyrrolidin-2-yl}phenyl)-1-methylpiperidin-4-amine]
8.03 nM | COc1cc(C(=O)N2C[C@H](O)C[C@@H]2c2ccccc2F)ccc1-c1cn[nH]c1 [Example 92, (3R,5R)-5-(2-Fluorophenyl)-1-[3-methoxy-4-(1H-pyrazol-4-yl)benzoyl] pyrrolidin-3-ol]
316 nM | COc1cc(C(=O)N2CC(O)C[C@@H]2c2cccc(C(=O)N3CC(OC)C3)c2)ccc1-c1cn[nH]c1 (stereo partly drawn) [Example 62, (5R)-1-[3-methoxy-4-(1H-pyrazol-4-yl)benzoyl]-5-[3-(3-methoxyazetidine-1-carbonly)phenyl] pyrrolidin-3-ol]
61.4 nM | COc1cc(C(=O)N2CCCC2c2cccc(C)c2)ccc1-c1cn[nH]c1 (stereo not shown) [Example 27, 4-{2-methoxy-4-[2-(3-methyl-phenyl)pyrrolidine-1-carbonyl]phenyl}-1H-pyrazole]
1.28 nM | COc1cc(C(=O)N[C@@H]2CNC[C@H]2c2ccccc2)ccc1-c1cn[nH]c1 (racemic) [Example 70, trans-(±)-3-Methoxy-N-(4-phenylpyrrolidin-3-yl)-4-(1H-pyrazol-4-yl)benzamide]
31 nM | COc1cc(C(=O)N2CCCC2c2cccc(Br)c2)ccc1-c1cn[nH]c1 (stereo not shown) [Example 15, 4-{4-[2-(3-bromophenyl)pyrrolidine-1-carbonyl]-2-methoxyphenyl}-1H-pyrazole]
15.8 nM | COc1cc(C(=O)N2CCCC2c2ccccc2Cl)ccc1-c1cn[nH]c1 (stereo not shown) [Example 28, 4-{4-[2-(2-chlorophenyl)pyrrolidine-1-carbonyl]-2-methoxyphenyl}-1H-pyrazole]
5.83 nM | COC(=O)c1cccc([C@H]2CCCN2C(=O)c2ccc(-c3cn[nH]c3)c(OC)c2)c1 [Example 32, Methyl 3-[(2R)-1-[3-methoxy-4-(1H-pyrazol-4-yl)benzoyl]pyrrolidin-2-yl]benzoate]
2.74 nM | COc1cc(C(=O)N2CCCC2c2cccc(O)c2)ccc1-c1cn[nH]c1 (stereo not shown) [Example 21, 3-{1-[3-methoxy-4-(1H-pyrazol-4-yl)benzoyl]pyrrolidin-2-yl}phenol]
1340 nM | COc1cc(C(=O)N2CCC[C@H]2CO)ccc1-c1cn[nH]c1 [Example 3, [(2S)-1-[3-methoxy-4-(1H-pyrazol-4-yl)benzoyl]pyrrolidin-2-yl]methanol]
3.57 nM | COc1cc(C(=O)N2CCCC2c2cccc(S(N)(=O)=O)c2)ccc1-c1cn[nH]c1 (stereo not shown) [Example 16, 3-{1-[3-methoxy-4-(1H-pyrazol-4-yl)benzoyl]pyrrolidin-2-yl}benzene-1-sulfonamide]
5.09 nM | COc1cc(C(=O)N2CC(O)C[C@@H]2c2cccc(C(=O)NC3CCC3)c2)ccc1-c1cn[nH]c1 (stereo partly drawn) [Example 54, N-cyclobutyl-3-[(2R)-4-hydroxy-1-[3-methoxy-4-(1H-pyrazol-4-yl)benzoyl]pyrrolidin-2-yl]benzamide]
102 nM | COc1cc(C(=O)N2CC(O)C[C@@H]2c2cccc(C(=O)N3CC(C#N)C3)c2)ccc1-c1cn[nH]c1 (stereo partly drawn) [Example 61, 1-{3-[(2R)-4-hydroxy-1-[3-methoxy-4-(1H-pyrazol-4-yl)benzoyl]pyrrolidin-2-yl]benzoyl} azetidin-3-carbonitrile]

From US10112939B2, “Tied-back benzamide derivatives as potent rock inhibitors” (Bristol-Myers Squibb Company, priority 2014, dated 2018)
